Consider 38 molecules from patent publication US8846719B2, “Isoxazolo-pyridine derivatives” (Roche Palo Alto LLC, priority 2007, dated 2014).

Where two headings read alike, the source gives them in different places.

This test addresses human GABA A receptor α5β3γ2 (Homo sapiens (Human), UniProt P18507+P31644). Briefly: [3H]flumazenil competition binding assay, human GABA A α5β3γ2 receptors expressed in HEK293 cells. The procedure, abridged: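 Competition for [3H]flumazenil binding on membranes of HEK293 cells transiently transfected with human α5β3γ2 receptors, in Krebs-tris buffer pH 7.5.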
[1] abbreviates: human receptor, displacement of [3H]flumazenil (0.5 nM), means of two determinations, read-out: hKi GABAAa5.

For `Cc1onc(-c2ccccn2)c1COc1ccc(C(=O)N2CCS(=O)(=O)CC2)cn1` [Example 276, (1,1-Dioxo-1,6-thiomorpholin-4-yl)-[6-(5-methyl-3-pyridin-2-yl-isoxazol-4-ylmethoxy)-pyridin-3-yl]-methanone], the Ki under setting [1] is 10.1 nM. Still for that read-out and setting: to `O=C(NC1CCOCC1)c1ccc(OCc2c(-c3ccccc3)noc2C(F)(F)F)nc1` [Example 135, 6-(3-Phenyl-5-trifluoromethyl-isoxazol-4-ylmethoxy)-N-(tetrahydro-pyran-4-yl)-nicotinamide] belongs 22.1 nM.

On to `Cc1onc(-c2ccccc2)c1COc1ccc(C(=O)NC2CCCC2)cn1` [Example 29, N-Cyclopentyl-6-(5-methyl-3-phenyl-isoxazol-4-ylmethoxy)-nicotinamide], for which the Ki under setting [1] came out at 3.9 nM.

As for `Cc1onc(-c2cccnc2)c1COc1ccc(C(=O)NCC2CC2)cn1` [Example 156, N-Cyclopropylmethyl-6-(5-methyl-3-pyridin-3-yl-isoxazol-4-ylmethoxy)-nicotinamide], the Ki under setting [1] came to 29.8 nM.

In the case of `O=C(NC1CCOCC1)c1ccc(OCc2conc2-c2ccc(Cl)cc2)nc1` [Example 345, 6-[3-(4-Chloro-phenyl)-isoxazol-4-ylmethoxy]-N-(tetrahydro-pyran-4-yl)-nicotinamide], the Ki under setting [1] worked out at 6.4 nM. The molecule `Cc1onc(-c2ccc(F)cc2)c1COc1ccc(C(=O)N2C[C@H]3C[C@@H](C2)O3)cn1` [Example 114, {6-[3-(4-Fluoro-phenyl)-5-methyl-isoxazol-4-ylmethoxy]-pyridin-3-yl}-(1R,5S)-6-oxa-3-aza-bicyclo [3.1.1]hept-3-yl-methanone] returned a Ki of 42.6 nM. `Cc1onc(-c2ccc(F)cc2)c1COc1ccc(C(=O)NC2CC2)cn1` [Example 108, N-Cyclopropyl-6-[3-(4-fluoro-phenyl)-5-methyl-isoxazol-4-ylmethoxy]-nicotinamide]: under setting [1], the Ki turned out to be 1.1 nM.

Take `Cc1onc(-c2ccccc2)c1COc1ncc(C(=O)NC(C)C)cc1Br` [Example 68, 5-Bromo-N-isopropyl-6-(5-methyl-3-phenyl-isoxazol-4-ylmethoxy)-nicotinamide]: the Ki under setting [1] was 18.6 nM. The same measure, in the same setting: under `Cc1onc(-c2ccccc2)c1COc1ccc(C(=O)NC2CC(OCc3ccccc3)C2)cn1` (stereo not drawn) [Example 230, (cis or trans)-N-(3-Benzyloxy-cyclobutyl)-6-(5-methyl-3-phenyl-isoxazol-4-ylmethoxy)-nicotinamide] stands 1.2 nM. Same read-out and setting: under `Cc1onc(-c2ccc(F)cn2)c1COc1ccc(C(=O)N2CCOCC2)cn1` [Example 296, {6-[3-(5-Fluoro-pyridin-2-yl)-5-methyl-isoxazol-4-ylmethoxy]-pyridin-3-yl}-morpholin-4-yl-methanone] stands 4.1 nM; under `Cc1onc(-c2ccc(Cl)cn2)c1COc1ccc(C(=O)NC2CC2)cn1` [Example 303, 6-[3-(5-Chloro-pyridin-2-yl)-5-methyl-isoxazol-4-ylmethoxy]-cyclopropyl-nicotinamide], 0.3 nM; under `Cc1onc(-c2ccc(F)c(F)c2)c1COc1ccc(C(=O)NCC(F)(F)F)cn1` [Example 125, 6-[3-(3,4-Difluoro-phenyl)-5-methyl-isoxazol-4-ylmethoxy]-N-(2,2,2-trifluoro-ethyl)-nicotinamide], 2.7 nM. On to `Cc1onc(-c2ccccc2)c1COc1ccc(C(=O)NCCCO)cn1` [Example 219, N-(3-Hydroxy-propyl)-6-(5-methyl-3-phenyl-isoxazol-4-ylmethoxy)-nicotinamide], for which, under setting [1], the Ki is 2.2 nM.

`O=C(NCCO)c1ccc(OCc2conc2-c2ccc(F)cc2)nc1` [Example 338, 6-[3-(4-Fluoro-phenyl)-isoxazol-4-ylmethoxy]-N-(2-hydroxy-ethyl)-nicotinamide]: the Ki under setting [1] is 23.3 nM. Same read-out and setting: under `COC(=O)c1ccc(OCc2c(-c3cccc(F)c3)noc2C)nc1` [Example 88, 6-[3-(3-Fluoro-phenyl)-5-methyl-isoxazol-4-ylmethoxy]-nicotinic acid methyl ester] stands 17.4 nM. Same read-out and setting: under `Cc1onc(-c2ccccc2)c1COc1ccc(C(=O)NC2CCCC2O)cn1` (centres unmarked) [Example 200, N-(2-Hydroxy-cyclopentyl)-6-(5-methyl-3-phenyl-isoxazol-4-ylmethoxy)-nicotinamide] stands 3.9 nM; under `O=C(N[C@@H]1CCC[C@H]1O)c1ccc(OCc2conc2-c2ccc(F)cc2)nc1` (single isomer, unassigned) [Example 341, 6-[3-(4-Fluoro-phenyl)-isoxazol-4-ylmethoxy]-N-((1R,2R)-2-hydroxy-cydopentyl)-nicotinamide or 6-[3-(4-fluoro-phenyl)-isoxazol-4-ylmethoxy]-N-((1S,2S)-2-hydroxy-cydopentyl)-nicotinamide], 29.2 nM. Same read-out and setting: to `Cc1onc(-c2cccc(F)c2)c1COc1ccc(C(=O)N2CCSCC2)cn1` [Example 95, {6-[3-(3-Fluoro-phenyl)-5-methyl-isoxazol-4-ylmethoxy]-pyridin-3-yl}-thiomorpholin-4-yl-methanone] belongs 45.6 nM. As to `O=C(NCCO)c1ccc(OCc2conc2-c2ccc(F)cn2)nc1` [Example 370, 6-[3-(5-Fluoro-pyridin-2-yl)-isoxazol-4-ylmethoxy]-(2-hydroxy-ethyl)-nicotinamide], the Ki under setting [1] is 21.4 nM. The same measure, in the same setting: to `Cc1onc(-c2ccncc2)c1COc1ccc(C(=O)NCC(F)(F)F)cn1` [Example 146, 6-(5-Methyl-3-pyridin-4-yl-isoxazol-4-ylmethoxy)-N-(2,2,2-trifluoro-ethyl)-nicotinamide] belongs 5.9 nM; to `O=C(NC1CCOCC1)c1ccc(OCc2conc2-c2ccc(F)cn2)nc1` [Example 365, 6-[3-(5-Fluoro-pyridin-2-yl)-isoxazol-4-ylmethoxy]-(tetrahydro-pyran-4-yl)-nicotinamide], 8 nM; to `Cc1onc(-c2ccccc2)c1COc1ccc(Br)cn1` [Example 3, 5-Bromo-2-(5-methyl-3-phenyl-isoxazol-4-ylmethoxy)-pyridine], 31.1 nM.

On to `CCNC(=O)c1ccc(OCc2c(-c3ccccn3)noc2C)nc1` [Example 280, Ethyl-6-(5-methyl-3-pyridin-2-yl-isoxazol-4-ylmethoxy)-nicotinamide], for which the Ki under setting [1] stood at 1.1 nM. Same read-out and setting: to `Cc1onc(-c2ccccc2)c1COc1ccc(C(=O)NC2CC2)cn1` [Example 27, N-Cyclopropyl-6-(5-methyl-3-phenyl-isoxazol-4-ylmethoxy)-nicotinamide] belongs 2.7 nM.

On to `Cc1onc(-c2ccccc2)c1COc1ccc(C2(O)COC2)cn1` [Example 74, 3-[6-(5-Methyl-3-phenyl-isoxazol-4-ylmethoxy)-pyridin-3-yl]-oxetan-3-ol], for which the Ki under setting [1] stood at 28.1 nM. Same read-out and setting: to `O=C(N[C@H]1CCC[C@@H]1O)c1ccc(OCc2conc2-c2ccc(F)cc2)nc1` [Example 331, 6-[3-(4-Fluoro-phenyl)-isoxazol-4-ylmethoxy]-N-((1S,2S)-2-hydroxy-cyclopentyl)-nicotinamide] belongs 17.8 nM; to `Cc1onc(-c2ccc(F)c(F)c2)c1COc1ccc(C(=O)NC2CCOCC2)cn1` [Example 127, 6-[3-(3,4-Difluoro-phenyl)-5-methyl-isoxazol-4-ylmethoxy]-N-(tetrahydro-pyran-4-yl)-nicotinamide], 2.4 nM. In the case of `Cc1onc(-c2ccccc2)c1COc1ccc(C(=O)NC2CCCCC2O)cn1` (centres unmarked) [Example 192, N-(2-Hydroxy-cyclohexyl)-6-(5-methyl-3-phenyl-isoxazol-4-ylmethoxy)-nicotinamide], the Ki under setting [1] worked out at 2.9 nM. On the same count and under the same terms, under `Cc1onc(-c2ccc(F)c(F)c2)c1COc1ccc(C(=O)NCC(C)(C)CO)cn1` [Example 268, 6-[3-(3,4-Difluoro-phenyl)-5-methyl-isoxazol-4-ylmethoxy]-N-(3-hydroxy-2,2-dimethyl-propyl)-nicotinamide] stands 3.3 nM. Still for that read-out and setting: to `Cc1onc(-c2ccccc2)c1COc1ccc(NC(=O)C(C)C)cn1` [Example 181, N-[6-(5-Methyl-3-phenyl-isoxazol-4-ylmethoxy)-pyridin-3-yl]-isobutyramide] belongs 19.2 nM; to `Cc1onc(-c2ccc(F)cn2)c1COc1ccc(C(=O)NC(C)(C)CO)cn1` [Example 291, 6-[3-(5-Fluoro-pyridin-2-yl)-5-methyl-isoxazol-4-ylmethoxy](2-hydroxy-1,1-dimethyl-ethyl)-nicotinamide], 1.2 nM; to `Cc1onc(-c2ccncc2)c1COc1ccc(C(=O)NCC2CC2)cn1` [Example 147, N-Cyclopropylmethyl-6-(5-methyl-3-pyridin-4-yl-isoxazol-4-ylmethoxy)-nicotinamide], 4.1 nM. Same read-out and setting: under `Cc1onc(-c2cccc(F)c2)c1COc1ccc(C(=O)N2CCS(=O)(=O)CC2)cn1` [Example 96, (1,1-Dioxo-1λ6-thiomorpholin-4-yl)-{6-[3-(3-fluoro-phenyl)-5-methyl-isoxazol-4-ylmethoxy]-pyridin-3-yl}-methanone] stands 13.4 nM; under `Cc1onc(-c2ccccc2)c1COc1ccc(C(=O)N(C)C2CCOCC2)cn1` [Example 50, N-Methyl-6-(5-methyl-3-phenyl-isoxazol-4-ylmethoxy)-N-(tetrahydro-pyran-4-yl)-nicotinamide], 20.2 nM.

Turning to `Cc1onc(-c2ccccc2)c1COc1ccc(C(=O)NC2CCN(Cc3ccccc3)CC2)cn1` [Example 37, N-(1-Benzyl-piperidin-4-yl)-6-(5-methyl-3-phenyl-isoxazol-4-ylmethoxy)-nicotinamide], under setting [1], the Ki was 7.3 nM.

On to `Cc1onc(-c2ccccc2)c1COc1ccc(C(=O)NC2(C#N)CC2)cn1` [Example 243, N-(1-Cyano-cyclopropyl)-6-(5-methyl-3-phenyl-isoxazol-4-ylmethoxy)-nicotinamide], for which, under setting [1], the Ki was found to be 2.9 nM. The same measure, in the same setting: to `Cc1onc(-c2ccncc2)c1COc1ccc(C(=O)N2CCSCC2)cn1` [Example 152, [6-(5-Methyl-3-pyridin-4-yl-isoxazol-4-ylmethoxy)-pyridin-3-yl]-thiomorpholin-4-yl-methanone] belongs 39.7 nM; to `Cc1onc(-c2ccccc2)c1CNc1ccc(C(=O)NC2CC2)cn1` [Example 165, N-Cyclopropyl-6-[(5-methyl-3-phenyl-isoxazol-4-ylmethyl)-amino]-nicotinamide], 10.6 nM.
